Experimental findings from patent publication US20080132544A1, “Peroxisome Proliferator-Activated Receptor Ligand” (KANEKA CORPORATION, priority 2004, published 2008) are described below.

One series concerns rats. The experiment in a line: Toxicity test on coumaperine, oral administration. In kind it is in vivo. Particulars: 2000 mg/kg of body weight. The method, then:
A toxicity test was conducted on the coumaperine of the present invention.
Coumaperine was orally administered at 2000 mg/kg of body weight to rats. […] Thus, the coumaperine was confirmed to have no or exceedingly low toxicity.

For series [1], the target named is T1, mouse PPARγ ligand-binding site (GAL4 chimeric protein, pM-mPPARγ) (Mus musculus, UniProt P37238).
T1 construct: expressed in transfected cells; host or cells: CV-1 cells (African green monkey kidney)
T1 sequence (P37238 174-475 isoform P37238-2): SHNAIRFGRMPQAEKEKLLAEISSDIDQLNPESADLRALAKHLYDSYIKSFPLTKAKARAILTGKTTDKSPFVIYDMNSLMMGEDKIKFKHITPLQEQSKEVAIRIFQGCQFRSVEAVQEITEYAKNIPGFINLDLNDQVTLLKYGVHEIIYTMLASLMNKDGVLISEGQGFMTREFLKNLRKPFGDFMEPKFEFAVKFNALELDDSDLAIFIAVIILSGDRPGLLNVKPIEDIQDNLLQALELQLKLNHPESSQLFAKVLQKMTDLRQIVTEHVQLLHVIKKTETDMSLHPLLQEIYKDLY
The experiment in a line: PPARγ ligand activity (GAL4-PPARγ chimera luciferase reporter assay in CV-1 cells). The note with it: for PPARγ ligand activity: specific activity relative to untreated control (DMSO = 1.00), CV-1 cells, 24 h. In kind it is cell-based. The method, then: CV-1 cells (cultured cells derived from male African green monkey kidney) were seeded at 6×10^3 cells/well into a 96-well culture plate and cultured at 37° C. for 24 hours under 5% CO2 conditions. The medium used was DMEM (Dulbecco's Modified Eagle Medium; GIBCO) containing 10% FBS (fetal bovine serum), 10 ml/L penicillin/streptomycin solution (5000 IU/ml and 5000 μg/ml, respectively; GIBCO), and 37 mg/L ascorbic acid (Wako Pure Chemical Industries, Ltd.). The cells were washed with OPTI-MEM (GIBCO) and then transfected with pM-mPPARγ and 4×UASg-luc by use of Lipofectamine plus (GIBCO). […] The 4×UASg-luc is a reporter plasmid in which four copies of the upstream activating sequence of GAL4 (UASg) are incorporated upstream of a luciferase gene. Approximately 24 hours after transfection, the medium was replaced with a sample-containing medium (n=4), followed by culture for additional 24 hours. The sample dissolved in dimethyl sulfoxide (DMSO) or DMSO used as an untreated control was added at 1/1000 of the volume to the medium. The cells were washed with Ca- and Mg-containing phosphate-buffered saline (PBS+). Then, Luclite (Packard) was added thereto, and the luminescence intensity of luciferase was measured with a TopCount microplate scintillation/luminescence counter (Packard).
pM (plasmid from which PPARγ ligand-binding site gene was removed) was used as a control group instead of the pM-mPPARγ and subjected to measurement in the same way as for the measurement group. The ratio (measurement group/control group) of the average luminescence intensity values (n=4) between the measurement and control groups was calculated for each sample. Specific activity relative to the untreated control was used as the PPARγ ligand activity of the sample.

Molecules are shown by their SMILES.

Consider `O=C(/C=C/C=C/c1ccc(O)cc1)N1CCCCC1` [Coumaperine, N-5-(4-hydroxyphenyl)-2E,4E-pentadienoyl piperidine], for which the death cases result with rats is reported as “no death case was observed”. Besides, in the series on rats, the toxic conditions result was “toxic conditions were not particularly observed”. Further, the “PPARγ ligand activity, concentration dependence (in words)” value in series [1] (0.5 to 50 μg/ml, Table 1) is on record as “concentration-dependent PPARγ ligand activity”. The PPARγ ligand activity was determined as 1.05 in series [1] (concentration added 0.5 μg/ml); 1.07 in series [1] (concentration added 1 μg/ml); 1.24 in series [1] (concentration added 2 μg/ml); 1.78 in series [1] (concentration added 5 μg/ml); 2.07 in series [1] (concentration added 10 μg/ml); 2.53 in series [1] (concentration added 20 μg/ml). The PPARγ ligand activity in series [1] (concentration added 30 μg/ml) turned out to be 2.38; in series [1] (concentration added 50 μg/ml), 2.44.
